Data as given in US9314472B2, “Treatment and prevention of mastitis” (BRIGHAM YOUNG UNIVERSITY, priority 2012, dated 2016).
Where a name gives a salt, the structure may show the parent alone.

Key:
[1] = test system: gram negative bacteria; assay: CSA-44/saline formulation study, intramammary treatment of clinical mastitis, gram negative; assay type: in vivo, lactating dairy cattle; conditions: CSA-44 120 mg x3 or cephapirin sodium 200 mg x2 intramammary, 11 days post-treatment
Protocol: (§1) A second dose characterization study was conducted using a non-final (saline) formulation of CSA-44 hydrochloride. The study enabled the selection of a dose to be used in the dose confirmation (field) study, which was conducted using the saline formulation of CSA-44 hydrochloride.
(§2) The objective of this study was to evaluate the effectiveness of intramammary administered CSA-44, as a saline based formulation, for the treatment of clinical mastitis in lactating dairy cows.
(§3) The objective was to evaluate the effectiveness of intramammary infusion of CSA-44 hydrochloride sterile suspension three times at a 24-hour interval at 120.0 mg dosage in the affected quarter in comparison to a negative control or 200 mg of cephapirin sodium activity in a stable peanut oil gel for the treatment of clinical mastitis in lactating dairy cattle.
(§4) A total of 151 cows from 2 herds were enrolled. Cows were enrolled in the study when they had visually abnormal milk (clots, flakes, or watery secretion) or if udder swelling, heat, pain or redness were present and milk was not yet visually abnormal, but the California Mastitis Test (CMT) gave results of 2 or greater. A pre-treatment milk sample was obtained from each affected quarter(s) and cultured for the presence of organisms associated with mastitis; the culture data were not available prior to treatment assignments.
(§5) Cows were assigned in blocks of three to receive either 120 mg CSA-44 HCl, 200 mg cephapirin sodium, or no treatment. Enrollment was restricted to cows with one quarter affected with clinical mastitis.
(§6) CSA-44 (120 mg) or cephapirin sodium (200 mg) was administered as an intramammary infusion three times or two times, respectively, at a 24-hour interval beginning on the day of enrollment (Day 0). Cows assigned to the control group were left untreated. […]. Cows in their second or greater lactation, with an elevated somatic cell count (SCC) and either a positive milk culture for a mastitis pathogen or signs of clinical mastitis were assigned to one of three treatment groups. A quarter was considered cured if there were no clinical signs of mastitis, visibly normal milk, and a negative milk culture 11 days post-treatment. Using these criteria, cure rates for all mastitis cases were 28.0% (Control-0 mg), 63.0% (cephapirin sodium, 200 mg), and 75.0% (CSA-44, 120 mg).
Test data for gram negative bacteria are set forth in Table 2 below and graphically illustrated in FIG. 2B.

[2] = test system: combined gram positive and gram negative bacteria; assay: CSA-44/saline formulation study, intramammary treatment of clinical mastitis, all cases; assay type: in vivo, lactating dairy cattle; conditions: for cure rate for all mastitis cases: CSA-44 120 mg three times or cephapirin sodium 200 mg two times, intramammary, 24-hour interval, cured = no clinical signs, visibly normal milk, negative milk culture 11 days post-treatment; for % Cure / Cure (number) / Not Cure (number): combined gram positive and gram negative, CSA-44 120 mg x3 or cephapirin sodium 200 mg x2 intramammary, 11 days post-treatment
Protocol: as §1, §2, §3, §4, §5, §6
Test data for combined gram positive and gram negative bacteria are set forth in Table 3 below and graphically illustrated in FIG. 2C.

[3] = test system: Staph. spp. (CNS and Staph. aureus); assay: Dose characterization study, CSA-44/propylene glycol formulation, intramammary treatment of clinical mastitis; assay type: in vivo, lactating dairy cows; conditions: 60 mg CSA-44 per quarter, infused eight to ten times at 12-hour interval; cured = no clinical signs 10 days post-treatment, milk visibly normal, SCC < 350,000 cells
Protocol: (§7) A first dose characterization study was conducted using CSA-44 hydrochloride with and without propylene glycol based in the formulation. This study enabled the selection of a dose to be used in a dose confirmation (field) study, which was conducted using two propylene glycol formulations and 60 mg of CSA-44 hydrochloride per 10 ml syringe.
(§8) The objective of this study was to evaluate the effectiveness of intramammary administered CSA-44, with and without propylene glycol as part of the formulation, for the treatment of clinical mastitis in lactating dairy cows.
(§9) A total of 42 cow quarters from Blue Star Dairy (BSD) were enrolled. Cows in their second or greater lactation, with an elevated somatic cell count (SCC) and either a positive milk culture for a mastitis pathogen or signs of clinical mastitis were assigned to one of two treatment groups: 1) ceftiofur hydrochloride administered 2-7 times, per label directions; and 2) 60 mg of CSA-44 per quarter, cows were infused eight to ten times at a 12-hour interval. A quarter was considered cured if there were no clinical signs of mastitis 10 days post-treatment, milk was visibly normal, and somatic cell count (SCC) was less than 350,000 cells. Using these criteria, cure rates for Group CSA treated cows were 87% for Staph. spp. (CNS and Staph. aureus), 90% for Escherichia coli, and 78% for Strep spp. (Streptococcus dysgalactiae, Strep. uberis, and Streptococcus sp).

[4] = test system: Escherichia coli; assay: as above; assay type: in vivo, lactating dairy cows; conditions: 60 mg CSA-44 per quarter, infused eight to ten times at 12-hour interval; cured = no clinical signs 10 days post-treatment, milk visibly normal, SCC < 350,000 cells
Protocol: as §7, §8, §9

[5] = test system: Strep spp. (Streptococcus dysgalactiae, Strep. uberis, and Streptococcus sp); assay: as above; assay type: in vivo, lactating dairy cows; conditions: 60 mg CSA-44 per quarter, infused eight to ten times at 12-hour interval; cured = no clinical signs 10 days post-treatment, milk visibly normal, SCC < 350,000 cells
Protocol: as §7, §8, §9

[6] = Animal safety: udder irritation after intramammary infusion of CSA-44 sterile saline suspension; assay type: in vivo, lactating female Holstein dairy cattle; conditions: 120 mg
Protocol: The purpose of this example was to study the effects on dairy cows relative to udder irritation of intramammary infusion of a sterile formulation of CSA-44 containing either […] of CSA-44 per 10 mL plastet into both front quarters. More particularly, the study evaluated the safety of intramammary infusion of 120 mg, 150 mg and 200 mg CSA-44 hydrochloride sterile saline (0.9% NaCl) suspension, respectively, in each of two front quarters daily for three consecutive days with an approximate 24-hour interval between infusions.
Three lactating female Holstein dairy cattle ranging from 2 to 5 years of age and representing low milk producers (13.2 kg to 24.0 kg/day) and high milk producers (25.0 kg to 31.9 kg/day) were used in the study. Cows were enrolled based on the absence of mastitis pathogens, absence of clinical mastitis (normal strip cup and udder palpation), a somatic cell count (SCC) less than or equal to 200,000 per mL, and no edema or teat lesions.
Within each of the lactation/production subgroups (1st lactation high producers, 1st lactation low producers, ≧2nd lactation high producers, or ≧2nd lactation low producers), cows were assigned to receive either three doses of CSA-44 by intramammary infusion. There were no non-treated controls.
Following a 3-day pre-treatment clinical observation and milk sample collection period, animals received their assigned treatment. Measurements and observations continued during the treatment period and through Day 3 (60 hours) post treatment.
A CSA-44 sterile saline suspension (120 mg, 150 mg, or 200 mg) was administered as an intramammary infusion into both front quarters once at a 24-hour interval for three consecutive days. The following clinical and production measures were evaluated for a total of either 14 milkings: appearance of foremilk (strip cup evaluation), physical condition of udder, milk production, and general health.

[7] = Human food safety: total residue study of CSA-44 in bovine milk by HPLC with MS detection; assay type: in vivo, lactating Holstein cows; conditions: predicted; intramammary 120, 150 or 200 mg daily for three days
From the text: The objective of this study was to validate a method for the determination of CSA-44 in bovine milk by HPLC with MS detection. The protocol has been designed to fulfill the requirements outlined in the FDA/CVM Guidance for Industry #208^1. ^1Guidance for Industry #208: Studies to Evaluate the Metabolism and Residue Kinetics of Veterinary Drugs in Food-Producing Animals: Validation of Analytical Methods used in Residue Depletion Studies. VICH GL49. U.S. Department of Health and Human Services, Food and Drug Administration, Center for Veterinary Medicine. Sep. 15, 2011
A GLP-compliant total residue study was conducted in 3 healthy, lactating Holstein cows. Cows tested were in the middle of their 2nd or 3rd lactation. The more specific objective was to evaluate the safety of intramammary infusion of 120, 150 and 200 mg dosages of CSA-44 hydrochloride sterile saline (0.9% NaCl) suspension, respectively, in each of two front quarters daily for three consecutive days with an approximate 24-hour interval between infusions.
Three lactating female Holstein dairy cattle ranging from 2 to 5 years of age and representing low milk producers (13.2 kg to 24.0 kg/day) and high milk producers (25.0 kg to 31.9 kg/day) were used in the study. […]

[8] = test system: gram positive bacteria; assay: CSA-44/saline formulation study, intramammary treatment of clinical mastitis, gram positive; assay type: in vivo, lactating dairy cattle; conditions: CSA-44 120 mg x3 or cephapirin sodium 200 mg x2 intramammary, 11 days post-treatment
Protocol: as §1, §2, §3, §4, §5, §6
Test data for gram positive bacteria are set forth in Table 1 below and graphically illustrated in FIG. 2A.

[9] = test system: coagulase-negative staphylococci, Streptococcus dysgalactae, and Eshcherica coli; conditions: from Freedom Of Information Summary NADA 141-238, sterile suspension of ceftiofur hydrochloride; cited from earlier work
[10] = 150 mg or 200 mg in sterile saline, intramammary into both front quarters, once daily for three consecutive days

Compound | % Cure [1] [%] | Cure (number) [1] | Not Cure (number) [1] | cure rate for all mastitis cases [2] [%] | % Cure [2] [%] | Cure (number) [2] | Not Cure (number) [2] | % Cure [8] [%] | Cure (number) [8] | Not Cure (number) [8] | also measured
CCCCCCCCOC(=O)CC[C@@H](C)[C@H]1CC[C@H]2[C@@H]3[C@H](OC(=O)CCN)C[C@@H]4C[C@H](OC(=O)CCN)CC[C@]4(C)[C@H]3C[C@H](OC(=O)CCN)[C@]12C [CSA-44] | 84 | 16 | 3 | 75.0 | 75 | 45 | 15 | 70 | 29 | 12 | cure rate [3]: 87%; cure rate [4]: 90%; cure rate [5]: 78%; milk quality appearance and strip cup response during treatment [6, 10]: no change in milk quality; udder physical condition scores, strip cup analyses, milk production (milk weight and percent milk fat) in response to treatment [6, 10]: no overall differences; clinical safety and irritation of mammary tissue ([6]; sterile saline formulation, 150 mg or 200 mg per 10 mL dose, infused once daily for up to three consecutive days): clinically safe and not irritating to the mammary tissue; time until CSA-44 is undetectable in milk [7]: 60 to 72 h; time until residues in the milk are substantially depleted [7]: 24 to 48 h
CO/N=C(\C(=O)N[C@@H]1C(=O)N2C(C(=O)O)=C(CSC(=O)c3ccco3)CS[C@H]12)c1csc(N)n1 [Ceftiofur HCl, ceftiofur hydrochloride] |  |  |  |  |  |  |  |  |  |  | % Cure [9]: 70%; Cure (number) [9]: 38; Not Cure (number) [9]: 16
CC(=O)OCC1=C(C(=O)O)N2C(=O)[C@@H](NC(=O)CSc3ccncc3)[C@H]2SC1 [Cephapirin Sodium, cephapirin sodium, reference compound] | 61 | 11 | 7 | 63.0 | 62 | 32 | 20 | 62 | 21 | 13 | 
